In series [1] the test system is Caenorhabditis elegans. The series can be described thus: Toxicity in L1 stage Caenorhabditis elegans N2 assessed as viability and reproduction at 10 uM. The format is organism-based. The conditions noted are these: in vivo.
A further series relates to MCF7. As to the kind of experiment: Antiproliferative activity against human MCF7 cells after 72 hrs by MTT assay. It is filed as functional, cell-based. Conditions: MCF7, 72 h.
Series [2] relates to MDA-MB-231. The series can be described thus: Antimigratory activity in human MDA-MB-231 cells after 24 hrs by wound healing assay. It is filed as functional, cell-based. Conditions: MDA-MB-231, 24 h.
Series [3] deals with MDA-MB-231. As to the kind of experiment: Antiproliferative activity against human MDA-MB-231 cells after 72 hrs by MTT assay. The format is functional, cell-based. Conditions: MDA-MB-231, 72 h. (Tetrazolium assays rely on reduction of a dye to a coloured formazan, in cell work by metabolically active cells.)
The subject of series [4] is Caenorhabditis elegans. The series can be described thus: Toxicity in L1 stage Caenorhabditis elegans N2 assessed as viability and reproduction at 50 uM. The format is organism-based. The conditions noted are these: in vivo.
For series [5], the system named is MDA-MB-231. The series can be described thus: Antiinvasive activity against human MDA-MB-231 cells assessed as inhibition of cell invasion at 15 uM after 24 hrs by BME Cell invasion assay kit. The format is functional.

Our source for the Activity, IC50 and inhibition values is ChEMBL document CHEMBL3217526, “Bioguided discovery and pharmacophore modeling of the mycotoxic indole diterpene alkaloids penitrems as breast cancer proliferation, migration, and invasion inhibitors” (Medchemcomm, 2013).

Active and inactive are the calls of the source. The calls are words filed in the database; no cut-off is given here.

Turning to `C=C1Cc2ccc3[nH]c4c5c3c2[C@H]2[C@@H]1C[C@H]2C(C)(C)O[C@H]5[C@@H]1CC[C@@]2(O)C3=C[C@@H](O)[C@@H](C(=C)C)O[C@H]3CC[C@]2(C)[C@@]41C` [PENITREM D], the Activity result in the series on Caenorhabditis elegans [1] and in the series with Caenorhabditis elegans [4] was “Non-toxic” throughout. In addition, the IC50 (commonly the concentration needed to halve the response being measured) with MCF7 was determined as 8.3 µM; in the series on MDA-MB-231 [2], 9.2 µM; in the series on MDA-MB-231 [3], 29.7 µM. The inhibition (in general, the change of the read-out against control, counted positive when it falls) at 15 µM in the series with MDA-MB-231 [5] (MDA-MB-231, 24 h) is 50%.
Regarding `C=C1Cc2c(Cl)cc3[nH]c4c5c3c2[C@H]2[C@@H]1C[C@@H]2C(C)(C)O[C@H]5[C@@H]1CC[C@@]2(O)[C@@]35O[C@@H]3[C@@H](O)[C@@H](C(=C)C)O[C@H]5CC[C@]2(C)[C@@]41C` [PENITREM F], the Activity entry in the series with Caenorhabditis elegans [1] and in the series on Caenorhabditis elegans [4] was “Non-toxic” each time. In addition, the IC50 with MCF7 came to 15 µM; with MDA-MB-231 [2], 35 µM; in the series with MDA-MB-231 [3] it was 13.8 µM. For the same molecule, the inhibition entry in the series with MDA-MB-231 [5] was “inactive”.
